Assay results taken from patent publication US20230348378A1, “SMALL MOLECULE ALBUMIN BINDERS” (Oregon Health & Science University, priority 2020, published 2023).
Values belong to the compound of their own block, whether it stands above or below them. Starred links: 1 amine or outer side, 2 acyl side, 3 side chain; linkers in the order of their positions; H or OH if unused. Positions of bridges follow the written chain, without caps; N, C: chain ends. Non-standard residues stand in square brackets, D forms with d. Residues, ends and D or L forms follow the SMILES beside them. *: point of attachment. DOTA = O=C(O)CN1CCN(CC(=O)O)CCN(CC(=O)*)CCN(CC(=O)O)CC1; NH(CH2CH2O)4CH2CO = O=C(COCCOCCOCCOCCN[*:1])[*:2]; X2 = O=C(CCCc1ccc(C(F)(F)F)c(F)c1)*; X1 = O=C(CCCc1ccc(C(F)(F)F)cc1)*

Tests used:
PSMA+ PC3pip xenograft = tested on: PSMA+ PC3pip xenograft; set-up: species or system mice; conditions: mouse, in vivo
Procedure: Biodistribution studies were performed 2 weeks after the tumor inoculation, when the size of tumor reached 5 mm. ^111In-labeled albumin binder-radioligand conjugates (1.85 MBq, 100 μL) were then administered via a lateral tail vein. The mice were sacrificed at 1, 2, 16, 24, or 48 h post-injections. Selected organs were collected and weighed, and the radioactivity was measured by the γ counter (Packard, Cobra E5003). The results were calculated as percentage of the injected dose per gram of mass (% ID/g).

BxPC3 xenograft = test: Biodistribution in mice bearing BxPC3 xenograft; format: in vivo
[1] = target: human serum albumin (HSA) (Homo sapiens, UniProt P02768); test: In vitro albumin protein binding ultrafiltration assay; conditions: for change of albumin binding affinity versus the corresponding ABX conjugate: D-ABCF3 vs ABCF3, hABCF3P vs ABCF3P, hABF3P vs ABF3P, εABCF3 vs ABCF3
Procedure: Following the published protocol, ultrafiltration assay was performed to assess albumin-binding properties of ^111In or ^64Cu labeled albumin binder-radioligand conjugates. ^111In or ^64Cu radiolabeling was conducted in NH4OAc (0.2 M, pH=7.0) buffer at 80° C. for 30 min with a specific activity of 3.7 MBq/nmol (100 μCi/nmol). The resulting albumin binder-radioligand conjugate (10 μL, 10 μM) was mixed with 100 μL human serum albumin (HSA, 1.0 mM in PBS 1×) and 90 μL PBS, followed by shaking gently at 37° C. for 30 min. After the incubation, 80 μL of each solution was loaded on the Zeba™ spin desalting column (7K MWCO) and centrifuged at 1500 g for 2 min. Radioactivity in 20 μL of each filtration and 10 μL mixture (before filtration) were quantified by the γ counter. The filtration rate of each sample was calculated as filtered counts/(mixture counts×2)×100%, all obtained results were then normalized by setting standard ABCF3 moiety as 74.4%. for the comparison purpose. The experiment was performed with triplicates. For working curve, different final concentrations of HSA varied from 10-1500 μM were used, followed the same protocol.

[2] = in vivo evaluation of FRGD without albumin binder
[3] = filtration assay, [HSA]=500 μM, [tracers]=0.5 μM

Sequence of human serum albumin (HSA) (P02768 25-609): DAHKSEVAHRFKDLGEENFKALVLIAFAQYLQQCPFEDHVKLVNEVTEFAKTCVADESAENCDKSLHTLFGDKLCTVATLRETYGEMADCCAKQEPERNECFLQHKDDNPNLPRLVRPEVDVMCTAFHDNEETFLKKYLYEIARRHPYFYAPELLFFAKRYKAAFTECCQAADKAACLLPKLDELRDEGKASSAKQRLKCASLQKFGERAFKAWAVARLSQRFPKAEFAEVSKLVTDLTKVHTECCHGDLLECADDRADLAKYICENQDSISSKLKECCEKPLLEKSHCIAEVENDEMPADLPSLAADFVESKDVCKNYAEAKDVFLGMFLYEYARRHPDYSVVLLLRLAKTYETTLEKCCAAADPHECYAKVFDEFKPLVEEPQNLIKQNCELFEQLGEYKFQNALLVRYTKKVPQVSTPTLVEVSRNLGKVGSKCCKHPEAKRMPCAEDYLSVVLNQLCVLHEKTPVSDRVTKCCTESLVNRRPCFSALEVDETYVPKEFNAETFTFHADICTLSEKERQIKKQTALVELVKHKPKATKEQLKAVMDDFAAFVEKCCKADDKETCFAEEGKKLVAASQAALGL

SMILES: O=C(O)CC[C@H](NC(=O)N[C@@H](CCCCNC(=O)[C@H](Cc1ccc2ccccc2c1)NC(=O)[C@H]1CC[C@H](CNC(=O)[C@H](CCCCNC(=O)CN2CCN(CC(=O)O)CCN(CC(=O)O)CCN(CC(=O)O)CC2)NC(=O)CCC(=O)N[C@@H](CCCCNC(=O)CCCc2ccc(C(F)(F)F)cc2)C(=O)O)CC1)C(=O)O)C(=O)O (64Cu complex, metal not drawn) [PSMA617-ABCF3]
increase of specific tumor uptake compared to PSMA617 (PSMA+ PC3pip xenograft): > 2 × | tumor/nontumor ratios compared to PSMA617 (PSMA+ PC3pip xenograft): enhance tumor/nontumor ratios

SMILES: CC(C)C[C@@H]1NC(=O)[C@H](CC(=O)O)NC(=O)CNC(=O)[C@H](CCCNC(=N)N)NC(=O)[C@H](Cc2ccccc2)NC(=O)[C@H](CCCCN)N(C)C(=O)[C@H]2CCCN2C(=O)[C@H](Cc2ccccc2)NC(=O)[C@H](C)NC1=O (111In complex, metal not drawn) [FRGD]
kidney uptake (BxPC3 xenograft; 111In labeled, without ABCF3): very high | non-tumor uptakes (BxPC3 xenograft; [2]): high non-tumor uptakes | tumor uptake (BxPC3 xenograft; [2]): relatively low tumor uptake

filtration percentage (normalized) ([1]; 64Cu-labeled DOTA-albumin binder conjugate, [HSA]=500 μM, [tracers]=0.5 μM, value set as normalisation standard (average)): 75%
SMILES: [N-]=[N+]=NCCCC[C@H](NC(=O)CN1CCC(CC(=O)O)CCN(CC(=O)O)CCN(CC(=O)O)CC1)C(=O)NCCCCCC(=O)N[C@@H](CCCCNC(=O)CCCc1ccc(C(F)(F)F)cc1)C(=O)O (some centres unmarked) [ABCF3]

change of albumin binding affinity versus the corresponding ABX conjugate [1, 3]: slightly increased binding affinity
SMILES: [N-]=[N+]=NCCCC[C@H](NC(=O)CN1CCC(CC(=O)O)CCN(CC(=O)O)CCN(CC(=O)O)CC1)C(=O)NCCCCCC(=O)N[C@H](CCCCNC(=O)CCCc1ccc(C(F)(F)F)cc1)C(=O)O (stereo partly drawn) [D-ABCF3]

SMILES: CC(C)C[C@@H]1NC(=O)[C@H](CC(=O)O)NC(=O)CNC(=O)[C@H](CCCNC(=N)N)NC(=O)CNC(=O)[C@H]([C@@H](C)O)NC(=O)[C@@H](NC(=O)[C@H](CCCNC(=N)N)NC(=O)CNC(=O)CN2CCN(CC(=O)O)CCN(CC(=O)O)CCN(CC(=O)O)CC2)CSSC[C@@H](C(=O)N[C@@H](Cc2ccc(O)cc2)C(=O)N2CCC[C@H]2C(=O)N[C@@H](CC(=O)O)C(=O)NCCOCCOCCOCCOCC(=O)N[C@@H](CCCCNC(=O)CCCc2ccc(C(F)(F)F)c(F)c2)C(=O)O)NC(=O)[C@H](CC(C)C)NC(=O)[C@H](CCCNC(=N)N)NC(=O)CNC1=O [SFLAP3-ABCF3-3F] ({DOTA}-GRCTGRGDLGRLCYPD[NH(CH2CH2O)4CH2CO]K(X2)-OH; disulfide 3-13)
in vivo performance (biodistribution, tumor/nontumor ratios) (BxPC3 xenograft; SFLAP3 conjugates with various ABX, 24 h): best in vivo performance among all the tested ABX

SMILES: CC(C)C[C@@H]1NC(=O)[C@H](CC(=O)O)NC(=O)CNC(=O)[C@H](CCCNC(=N)N)NC(=O)CNC(=O)[C@H]([C@@H](C)O)NC(=O)[C@@H](NC(=O)[C@H](CCCNC(=N)N)NC(=O)CNC(=O)CN2CCN(CC(=O)O)CCN(CC(=O)O)CCN(CC(=O)O)CC2)CSSC[C@@H](C(=O)N[C@@H](Cc2ccc(O)cc2)C(=O)N2CCC[C@H]2C(=O)N[C@@H](CC(=O)O)C(=O)NCCOCCOCCOCCOCC(=O)N[C@@H](CCCCNC(=O)CCCc2ccc(C(F)(F)F)cc2)C(=O)O)NC(=O)[C@H](CC(C)C)NC(=O)[C@H](CCCNC(=N)N)NC(=O)CNC1=O [SFLAP3-ABCF3] ({DOTA}-GRCTGRGDLGRLCYPD[NH(CH2CH2O)4CH2CO]K(X1)-OH; disulfide 3-13)
percentage bound to albumin protein ([1]; 64Cu-labeled, filtration assay, FIG. 6): ~75%

change of albumin binding affinity versus the corresponding ABX conjugate [1, 3]: slightly increased binding affinity
SMILES: [N-]=[N+]=NCCCC[C@H](NC(=O)CN1CCN(CC(=O)O)CCN(CC(=O)O)CCN(CC(=O)O)CC1)C(=O)NCCCCCC(=O)N[C@H](CCCCCNC(=O)CCc1cc(F)c(F)c(F)c1)C(=O)O [hABF3P]

SMILES: [N-]=[N+]=NCCCC[C@H](NC(=O)CN1CCN(CC(=O)O)CCN(CC(=O)O)CCN(CC(=O)O)CC1)C(=O)NCC(=O)NCCCC[C@H](NCCC(=O)NCCCCc1ccc(C(F)(F)F)cc1)C(=O)O [εABCF3]
change of albumin binding affinity versus the corresponding ABX conjugate [1, 3]: significantly decrease its binding affinity
